Measurements taken from paper PMC8983325 (Protein & Cell, 2022).

Tested on: SARS-CoV-2 variants of concern (Alpha, Beta, Delta and Omicron)
Assay: microbe, parasite or virus in culture
Format: cell-based
Settings: Severe acute respiratory syndrome coronavirus 2, VeroE6/TMPRSS2, read-out: EC50 against SARS-CoV-2 VOC

**Q.** Which EC50 does the source give for `O=C(Nc1ccccc1Cl)c1sc(=S)n2c1[nH]c(=O)c1ccccc12` [F0213] here?
**A.** Its EC50 is 2.2 to 4.8 µM.
